Structures can show the parent of a compound that is named as a salt. Where only a bound is given, the exact number is not on record here.

One experiment concerns the target human S1P5 (EDG-8) (Homo sapiens, UniProt Q9H228). Briefly: S1P receptor agonist activity by monitoring intracellular calcium concentration (S1P5). Format: cell-based. Particulars: for EC50: CHO cells overexpressing human S1P5 (EDG-8) gene, intracellular calcium increase, S1P signal = 100% activity; for balance of S1P5 receptor agonist activity against S1P1 receptor agonist activity (in words): comparison of calcium assay agonist activities at S1P1 and S1P5. As to the method:
(§1) Chinese hamster ovary (CHO) cells in which each of a human S1P1 (EDG-1) gene or a human S1P5 (EDG-8) gene was overexpressed were cultured in Ham's F-12 medium containing 10% FBS (fetal bovine serum), penicillin/streptomycin, and geneticin (0.25 mg/mL). The culture medium was replaced one day before performing a calcium assay and on the day of the assay. Four hours after the culture medium replacement, the culture medium was removed, and washing was performed once with phosphate-buffered saline. After the cells were detached by adding 0.05% trypsin EDTA, the cells were recovered by adding a culture medium. The recovered cell suspension was centrifuged to remove the supernatant, and the cells were suspended in phosphate-buffered saline, and the cell number was counted. The cells were suspended in a Hanks solution containing Calcium 6 Assay Reagent (manufactured by Molecular Devices, LLC), 20 mM HEPES, and 2.5 mM probenecid at a cell density of 1.1×10^6 cells/mL, and the suspension was incubated at 37° C. for about 1 hour. Thereafter, the supernatant was removed by centrifugation, and the cells were suspended in a Hanks solution containing 20 mM HEPES, 2.5 mM probenecid, and 0.1% BSA at a cell density of 2.2×10^6 cells/mL. The suspension was inoculated in a 96-well plate at 80 μL/well. The plate was set on a fluorescent drug screening system (FDSS 6000), and the compound and S1P were sequentially added thereto, and an increase in intracellular calcium concentration between before and after the addition was measured at an excitation wavelength of 480 nm and a fluorescence wavelength of 540 nm. The increase in intracellular calcium concentration was evaluated by the signal intensity at the fluorescence wavelength, and the agonist activity of each compound was calculated by assuming the signal intensity when S1P was added instead of the compound to be 100% activity.

Experiment [1] deals with T1, human S1P1 (EDG-1) (Homo sapiens, UniProt P21453). Description: S1P receptor agonist activity by monitoring intracellular calcium concentration (S1P1). Particulars: for EC50: CHO cells overexpressing human S1P1 (EDG-1) gene, intracellular calcium increase, S1P signal = 100% activity. Format: cell-based. As to the method: as §1
Experiment [2] deals with T1, human S1P1 (EDG-1). Description: Inhibition of binding of [33P]-S1P to S1P1, CHO membrane fraction. Particulars: membrane fraction of CHO cells overexpressing human S1P1; room temperature 60 minutes; read-out: inhibitory activity (IC50 value) for binding of [33P]-S1P to S1P1. As to the method:
(§2) A reaction was carried out in a 96-well microplate by using a membrane fraction of Chinese hamster ovary (CHO) cells each of which was made to overexpress human S1P1 (EDG-1) gene or human S1P5 gene respectively, in an amount of the membrane fraction of 60 μg protein/mL. To each of the well, 100 μL of a vehicle (DMSO) solution or a compound solution at a two-fold concentration each diluted with Binding Buffer (50 mmol/L Tris pH 7.5, 5 mmol/L MgCl2, 0.5% BSA, Complete EDTA free (1 tablet/50 mL)) and 50 μL of 0.16 nmol/L [^33P]-S1P (manufactured by American Radiolabeled Chemicals, Inc.) diluted with Binding Buffer were added, and thereafter, the membrane fraction solution (50 μL) was added thereto, and a reacted was allowed to proceed at room temperature for 60 minutes. After the reaction, suction filtration was carried out by using a 96-well Unifilter, followed by washing with a washing buffer (50 mmol/L Tris pH 7.5, 0.5% BSA) ([…]), and then dried at 50 to 60° C. for 30 to 60 minutes. MicroScint (trade name) 20 (50 μL/well) was added thereto, and the plate was covered with TopSeal-A, and then a radioactivity was measured with TopCount (manufactured by PerkinElmer Co., Ltd.)
(§3) The compound concentration at which 50% of the specific binding of [^33P]-S1P to human S1P1 and human S1P5 was replaced (IC50 value) was used as an evaluation item. […]

A further experiment deals with T2, human S1P5 (Homo sapiens, UniProt Q9H228).
T2 construct: expressed in transfected cells; host or cells: membrane fraction of Chinese hamster ovary (CHO) cells
Description: Inhibition of binding of [33P]-S1P to S1P5, CHO membrane fraction. Particulars: membrane fraction of CHO cells overexpressing human S1P5; room temperature 60 minutes; read-out: inhibitory activity (IC50 value) for binding of [33P]-S1P to S1P5. As to the method: as §2, §3

Sequence of human S1P5 (EDG-8) (Q9H228 whole entry): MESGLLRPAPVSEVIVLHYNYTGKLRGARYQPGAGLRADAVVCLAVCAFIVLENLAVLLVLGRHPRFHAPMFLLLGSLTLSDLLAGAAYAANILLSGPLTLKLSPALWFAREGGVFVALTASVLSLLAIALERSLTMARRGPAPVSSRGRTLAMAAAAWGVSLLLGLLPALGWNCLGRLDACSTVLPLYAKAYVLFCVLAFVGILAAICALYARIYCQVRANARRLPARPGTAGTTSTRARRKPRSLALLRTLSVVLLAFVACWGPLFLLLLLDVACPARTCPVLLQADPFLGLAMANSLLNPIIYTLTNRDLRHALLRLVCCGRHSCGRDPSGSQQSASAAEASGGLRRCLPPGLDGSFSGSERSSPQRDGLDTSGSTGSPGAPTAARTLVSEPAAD
T1 sequence (P21453 whole entry): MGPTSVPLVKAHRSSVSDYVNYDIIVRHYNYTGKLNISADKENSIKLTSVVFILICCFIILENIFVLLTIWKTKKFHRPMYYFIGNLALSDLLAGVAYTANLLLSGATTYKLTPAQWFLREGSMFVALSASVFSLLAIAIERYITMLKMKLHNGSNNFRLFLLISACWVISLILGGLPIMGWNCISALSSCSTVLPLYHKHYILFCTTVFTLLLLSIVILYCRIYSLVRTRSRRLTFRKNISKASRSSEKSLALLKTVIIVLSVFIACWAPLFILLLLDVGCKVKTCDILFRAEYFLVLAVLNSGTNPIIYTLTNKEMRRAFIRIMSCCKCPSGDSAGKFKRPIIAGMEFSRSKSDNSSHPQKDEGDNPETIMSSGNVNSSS
T2 sequence (Q9H228 whole entry): as the sequence (Q9H228 whole entry) above

Consider `CCCCCCCCOc1ccc2c(c1)CCC(CN1CC(C(=O)O)C1)=C2C.Cl` [Comparative Compound A, 1-{[1-methyl-6-(octyloxy)-3,4-dihydro-2-naphthalenyl]methyl}-3-azetidinecarboxylic acid hydrochloride, reference compound], for which, at human S1P5 (EDG-8), the EC50 was found to be 3 nM and the “balance of S1P5 receptor agonist activity against S1P1 receptor agonist activity (in words)” value is listed as “S1P1 receptor agonist activity was stronger than the S1P5 receptor agonist activity”. The EC50 on human S1P1 (EDG-1) [1] is below 3 nM.

On to `CCCc1ccc(COc2ccc3c(c2)CCC(CN2CC(C(=O)O)C2)=C3C)c(OC)c1` [Comparative Compound B, 1-({6-[(2-methoxy-4-propylbenzyl)oxy]-1-methyl-3,4-dihydro-2-naphthalenyl}methyl)-3-azetidinecarboxylic acid, reference compound], for which, at human S1P5 (EDG-8), the EC50 worked out at 2 nM and the “balance of S1P5 receptor agonist activity against S1P1 receptor agonist activity (in words)” value is listed as “S1P1 receptor agonist activity was stronger than the S1P5 receptor agonist activity”. The EC50 on human S1P1 (EDG-1) [1] is 0.2 nM.

As to `CC1=C(CNCCC(=O)O)CCc2cc(OCCCC3CCCCC3)ccc21` [Comparative Compound C, 3-({[6-(3-cyclohexylpropoxy)-1-methyl-3,4-dihydro-2-naphthalenyl]methyl}amino)propanoic acid hydrochloride], the values for the IC50 at human S1P1 (EDG-1) [2] and at human S1P5 were 1 nM and 8.5 nM, respectively.

With `COc1ccc2c(c1)C[C@H](C)C(CN1CC(F)(C(=O)O)C1)=C2` [Comparative Example, (S)-3-fluoro-1-[(6-methoxy-3-methyl-3,4-dihydronaphthalen-2-yl)methyl]azetidine-3-carboxylic acid, reference compound], the EC50 on human S1P5 (EDG-8) and on human S1P1 (EDG-1) [1] was above 10000 nM each time. Further, the “S1P5 receptor agonist activity (in words)” value at human S1P5 (EDG-8) (calcium assay, CHO cells overexpressing human S1P5) is reported as “did not have”. The “S1P1 receptor agonist activity (in words)” value at human S1P1 (EDG-1) [1] (calcium assay, CHO cells overexpressing human S1P1) was “did not have”.

In the case of `C[C@H]1Cc2cc(OCCCC(F)(F)F)ccc2C=C1CN1CC(C(=O)O)C1` [Example 15 (34), 1-[[(3S)-3-methyl-6-(4,4,4-trifluorobutoxy)-3,4-dihydronaphthalen-2-yl]methyl]azetidine-3-carboxylic acid], the concentration giving a half-maximal response (EC50) was 20 nM at human S1P5 (EDG-8) and above 3000 nM at human S1P1 (EDG-1) [1].

For the molecule `C[C@H]1Cc2cc(OCCC(F)=C(F)F)ccc2C=C1CN1CC(F)(C(=O)O)C1` [Example 15 (52), 3-fluoro-1-[[(3S)-3-methyl-6-(3,4,4-trifluorobut-3-enoxy)-3,4-dihydronaphthalen-2-yl]methyl]azetidine-3-carboxylic acid], the concentration giving a half-maximal response (EC50) was 15 nM on human S1P5 (EDG-8) and above 3000 nM at human S1P1 (EDG-1) [1].

Consider `[2H]C([2H])([2H])C([2H])([2H])C([2H])([2H])C([2H])([2H])Oc1ccc2c(c1)C[C@H](C)C(CN1CC(C(=O)O)C1)=C2` [Example 15 (70), 1-[[(3S)-3-methyl-6-(1,1,2,2,3,3,4,4,4-nonadeuteriobutoxy)-3,4-dihydronaphthalen-2-yl]methyl]azetidine-3-carboxylic acid], for which the EC50 at human S1P5 (EDG-8) was 12 nM; at human S1P1 (EDG-1) [1], above 3000 nM.

Consider `C[C@H]1Cc2cc(OCCCC(F)(F)F)ccc2C=C1CN1CC[C@@H](C(=O)O)C1` [Example 15 (72), (3R)-1-[[(3S)-3-methyl-6-(4,4,4-trifluorobutoxy)-3,4-dihydronaphthalen-2-yl]methyl]pyrrolidine-3-carboxylic acid], for which the values for the EC50 at human S1P5 (EDG-8) and at human S1P1 (EDG-1) [1] were 22 nM and above 3000 nM, respectively.

In the case of `C[C@H]1Cc2cc(OC/C=C/C(F)(F)F)ccc2C=C1CN1CC(F)(C(=O)O)C1` [Example 15 (82), 3-fluoro-1-[[(3S)-3-methyl-6-[(E)-4,4,4-trifluorobut-2-enoxy]-3,4-dihydronaphthalen-2-yl]methyl]azetidine-3-carboxylic acid], the figures for the concentration for a half-maximal effect (EC50) on human S1P5 (EDG-8) and on human S1P1 (EDG-1) [1] were 9 nM and above 30000 nM, respectively.

In the case of `C[C@H]1Cc2cc(OCCC(F)(F)F)ccc2C=C1CN1CC(F)(C(=O)O)C1` [Example 15 (86), 3-fluoro-1-{[(3S)-3-methyl-6-(3,3,3-trifluoropropoxy)-3,4-dihydro-2-naphthalenyl]methyl}-3-azetidinecarboxylic acid], the EC50 at human S1P5 (EDG-8) is 26 nM; on human S1P1 (EDG-1) [1] it was above 30000 nM.

`CCCCCOc1ccc2c(c1)C[C@H](C)C(CN1CC(C(=O)O)C1)=C2` [Example 15, 1-[((3S)-3-methyl-6-pentoxy-3,4-dihydronaphthalen-2-yl)methyl]azetidine-3-carboxylic acid]: the figures for the EC50 on human S1P5 (EDG-8) and at human S1P1 (EDG-1) [1] were 3 nM and above 3000 nM, respectively.

Regarding `CC(N[C@H]1C[C@@H](C(=O)O)C1)C1=Cc2ccc(OCCCC(F)(F)F)cc2C[C@@H]1C` (stereo partly drawn) [Example 47 (2), cis-3-({1-[(3S)-3-methyl-6-(4,4,4-trifluorobutoxy)-3,4-dihydro-2-naphthalenyl]ethyl}amino)cyclobutanecarboxylic acid], the values for the half-maximal effective concentration (EC50) at human S1P5 (EDG-8) and on human S1P1 (EDG-1) [1] were 1100 nM and above 30000 nM, respectively.

Regarding `CCCOCc1ccc2c(c1)C[C@H](C)C(CN1CC(C(=O)O)C1)=C2` [Example 57 (2), 1-{[(3S)-3-methyl-6-(propoxymethyl)-3,4-dihydro-2-naphthalenyl]methyl}-3-azetidinecarboxylic acid], the concentration giving a half-maximal response (EC50) is 98 nM at human S1P5 (EDG-8) and above 30000 nM at human S1P1 (EDG-1) [1].

Values taken from US12049445B2, “Compounds having S1P5 receptor agonistic activity” (ONO PHARMACEUTICAL CO., LTD., priority 2018, dated 2024).
